For experiment [1], the system named is Klebsiella pneumoniae expressing VIM-1 (IHMA599644). As to the kind of experiment: Antibiotic potentiation activity: synergistic concentration (MITC95) with imipenem, OD600 growth. The class given is cell-based. The settings on record: Klebsiella pneumoniae expressing VIM-1 (IHMA599644), 95% growth inhibition. A digest of the protocol: (§1)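 Test compound was combined with 4 μg/ml imipenem (or optionally 1 μg/ml), or with no antibiotic, against saline-suspended colonies diluted 1:100 in 1.1×CAMHB. Strains were E. coli NDM-1, S. marcescens IMP-1 and K. pneumoniae VIM-1. Plates were incubated 22–24 h at 35 °C before absorbance (OD600) readout.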

Experiment [2] relates to Serratia marcescens expressing IMP-1 (CL5741). The description is as above. The settings on record: Serratia marcescens expressing IMP-1 (CL5741), 95% growth inhibition. It is filed as cell-based. A digest of the protocol:
as §1

The test system of experiment [3] is Escherichia coli expressing NDM-1 (CLB30016). The description is as above. The settings on record: Escherichia coli expressing NDM-1 (CLB30016), 95% growth inhibition. It is filed as cell-based. Summed up: as §1
The target of a further experiment is IMP-1 (Serratia marcescens, UniProt P52699). As to the kind of experiment: biochemical. The class given is biochemical. Particulars: IMP-1 enzyme, CCF2-FA fluorescence assay; read-out: IMP-1 IC50.
IMP-1, sequence (P52699 whole entry, looked up): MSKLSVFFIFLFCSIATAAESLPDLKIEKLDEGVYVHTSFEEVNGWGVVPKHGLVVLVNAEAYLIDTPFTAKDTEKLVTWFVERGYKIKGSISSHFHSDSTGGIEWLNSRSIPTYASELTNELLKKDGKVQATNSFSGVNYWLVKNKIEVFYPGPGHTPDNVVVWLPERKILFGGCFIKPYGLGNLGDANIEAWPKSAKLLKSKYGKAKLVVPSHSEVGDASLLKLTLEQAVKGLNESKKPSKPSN
The target in another experiment is VIM-1 (Pseudomonas aeruginosa (strain ATCC 15692 / DSM 22644 / CIP 104116 / JCM 14847 / LMG 12228 / 1C / PRS 101 / PAO1), UniProt A0A0F7KYQ8). As to the kind of experiment: Enzyme activity: determination of IC50, fluorescence assay with CCF2-FA substrate (VIM-1). The class given is biochemical. Particulars: CCF2-FA fluorescence assay.
The next experiment deals with NDM-1 (Klebsiella pneumoniae, UniProt C7C422). As to the kind of experiment: biochemical. The class given is biochemical. The settings on record: NDM-1 enzyme, CCF2-FA fluorescence assay; read-out: NDM-1 IC50.
NDM-1, sequence (C7C422 whole entry, looked up, species assumed): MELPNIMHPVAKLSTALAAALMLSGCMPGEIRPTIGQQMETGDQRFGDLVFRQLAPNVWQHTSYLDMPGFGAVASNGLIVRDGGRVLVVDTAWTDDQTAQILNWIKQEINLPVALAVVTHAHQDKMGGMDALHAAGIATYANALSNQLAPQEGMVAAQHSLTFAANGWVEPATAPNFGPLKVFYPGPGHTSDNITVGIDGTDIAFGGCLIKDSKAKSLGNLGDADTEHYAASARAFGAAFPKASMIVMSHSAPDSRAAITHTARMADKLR
[4] abbreviates: VIM-1 enzyme, read-out: VIM-1 IC50.

Read-outs that look alike come from different tables or passages of the source.

The values that follow come from US9708336B2, “Metallo-beta-lactamase inhibitors” (priority 2014, dated 2017).

As a reminder, the IC50 is the concentration needed to halve the response being measured. Turning to `NS(=O)(=O)c1cccc(-c2ccc(CNCC(=O)NO)cc2)c1-c1nnn[nH]1` [Example 330, N-hydroxy-2-(((3′-sulfamoyl-2′-(1H-tetrazol-5-yl)-[1,1′-biphenyl]-4-yl)methyl)amino)acetamide], in experiment [1], the “Klebsiella pneumoniae MITC95” value stood at 50 µM. For the same compound, in experiment [2], the “Serratia marcescens MITC95” value turned out to be 4.688 µM. Moreover, the “Escherichia coli MITC95” value in experiment [3] was 1.563 µM. Moreover, the IC50 at IMP-1 was determined as 118 nM; on VIM-1 (setting [4]), 401 nM; at NDM-1 it was 12.5 nM.

Consider `CN1CC(NCc2ccc(-c3cccc(S(N)(=O)=O)c3-c3nnn[nH]3)cc2)C1` [Example 331, 4′-(((1-methylazetidin-3-yl)amino)methyl)-2-(1H-tetrazol-5-yl)-[1,1′-biphenyl]-3-sulfonamide], for which, in experiment [1], the “Klebsiella pneumoniae MITC95” value came to 150 µM. In addition, in experiment [2], the “Serratia marcescens MITC95” value was 6.25 µM. Further, the “Escherichia coli MITC95” value in experiment [3] was found to be 1.172 µM. The IC50 was 392 nM at IMP-1, 1190 nM on VIM-1 (setting [4]) and 30.6 nM at NDM-1.

Consider `CN1CCC(NCc2ccc(-c3cccc(S(N)(=O)=O)c3-c3nnn[nH]3)cc2)C1` (stereo not drawn) [Example 332, 4′-(((1-methylpyrrolidin-3-yl)amino)methyl)-2-(1H-tetrazol-5-yl)-[1,1′-biphenyl]-3-sulfonamide], for which the “Klebsiella pneumoniae MITC95” value in experiment [1] was 100 µM. Besides, the “Serratia marcescens MITC95” value in experiment [2] was 3.125 µM. In experiment [3], the “Escherichia coli MITC95” value worked out at 0.5859 µM. The half-maximal inhibitory concentration (IC50) on IMP-1 came out at 192 nM; at VIM-1 (setting [4]), 554 nM; on NDM-1, 11.5 nM.

For `CNCc1ccc(-c2cccc(S(N)(=O)=O)c2-c2nnn[nH]2)cc1` [Example 334, 4′-((methylamino)methyl)-2-(1H-tetrazol-5-yl)-[1,1′-biphenyl]-3-sulfonamide], in experiment [1], the “Klebsiella pneumoniae MITC95” value was 9.375 µM. In addition, the “Serratia marcescens MITC95” value in experiment [2] came to 3.125 µM. For the same compound, the “Escherichia coli MITC95” value in experiment [3] was 0.3906 µM. Moreover, the IC50 worked out at 385 nM on IMP-1, 129 nM at VIM-1 (setting [4]) and 10.6 nM at NDM-1.

In the case of `CN(CCO)Cc1ccc(-c2cccc(S(N)(=O)=O)c2-c2nnn[nH]2)cc1` [Example 335, 4′-(((2-hydroxyethyl)(methyl)amino)methyl)-2-(1H-tetrazol-5-yl)-[1,1′-biphenyl]-3-sulfonamide], the “Klebsiella pneumoniae MITC95” value in experiment [1] is 25 µM. The “Serratia marcescens MITC95” value in experiment [2] is 3.125 µM. In addition, the “Escherichia coli MITC95” value in experiment [3] came out at 0.3906 µM. The IC50 is 228 nM on IMP-1, 227 nM at VIM-1 (setting [4]) and 15 nM at NDM-1.

Take `CC(C)(O)C1CN(Cc2ccc(-c3cccc(S(N)(=O)=O)c3-c3nnn[nH]3)cc2)C1` [Example 336, 4′-((3-(2-hydroxypropan-2-yl)azetidin-1-yl)methyl)-2-(1H-tetrazol-5-yl)-[1,1′-biphenyl]-3-sulfonamide]: the “Klebsiella pneumoniae MITC95” value in experiment [1] stood at 100 µM. Besides, the “Serratia marcescens MITC95” value in experiment [2] turned out to be 4.688 µM. Moreover, in experiment [3], the “Escherichia coli MITC95” value worked out at 0.7813 µM. The IC50 on IMP-1 worked out at 379 nM; at VIM-1 (setting [4]), 634 nM; on NDM-1 it was 34 nM.

For `NC(=O)C1CCN(Cc2ccc(-c3cccc(S(N)(=O)=O)c3-c3nnn[nH]3)cc2)C1` (stereo not drawn) [Example 337, 1-((3′-sulfamoyl-2′-(1H-tetrazol-5-yl)-[1,1′-biphenyl]-4-yl)methyl)pyrrolidine-3-carboxamide], the “Klebsiella pneumoniae MITC95” value in experiment [1] was found to be 75 µM. Also, the “Serratia marcescens MITC95” value in experiment [2] came out at 2.344 µM. Further, the “Escherichia coli MITC95” value in experiment [3] came out at 0.3906 µM. Moreover, the IC50 came to 69.8 nM at IMP-1, 321 nM on VIM-1 (setting [4]) and 4.38 nM on NDM-1.

For the compound `NS(=O)(=O)c1cccc(-c2ccc(CNCCc3nc[nH]n3)cc2)c1-c1nnn[nH]1` [Example 338, 4′-(((2-(1H-1,2,4-triazol-3-yl)ethyl)amino)methyl)-2-(1H-tetrazol-5-yl)-[1,1′-biphenyl]-3-sulfonamide], in experiment [1], the “Klebsiella pneumoniae MITC95” value came to 25 µM. Besides, the “Serratia marcescens MITC95” value in experiment [2] stood at 3.125 µM. In experiment [3], the “Escherichia coli MITC95” value amounted to 0.5859 µM. Besides, the half-maximal inhibitory concentration (IC50) at IMP-1 was found to be 75.4 nM; against VIM-1 (VIM-1 IC50, VIM-1 enzyme), 152 nM; on NDM-1, 4.53 nM.

Turning to `NS(=O)(=O)c1cccc(-c2ccc(CNC3CC(F)(F)C3)cc2)c1-c1nnn[nH]1` [Example 339, 4′-(((3,3-difluorocyclobutyl)amino)methyl)-2-(1H-tetrazol-5-yl)-[1,1′-biphenyl]-3-sulfonamide], in experiment [1], the “Klebsiella pneumoniae MITC95” value was greater than 200 µM. For the same compound, the “Serratia marcescens MITC95” value in experiment [2] was 1.563 µM. Besides, in experiment [3], the “Escherichia coli MITC95” value amounted to 0.5859 µM. Further, the IC50 at IMP-1 was 42.3 nM; at VIM-1 (setting [4]) it was 611 nM; at NDM-1, 4.54 nM.

With `NC(=O)CNCc1ccc(-c2cccc(S(N)(=O)=O)c2-c2nnn[nH]2)cc1` [Example 340, 2-(((3′-sulfamoyl-2′-(1H-tetrazol-5-yl)-[1,1′-biphenyl]-4-yl)methyl)amino)acetamide], in experiment [1], the “Klebsiella pneumoniae MITC95” value was 25 µM. In addition, in experiment [2], the “Serratia marcescens MITC95” value was 1.563 µM. Moreover, the “Escherichia coli MITC95” value in experiment [3] was 0.3906 µM. For the same compound, the IC50 at IMP-1 is 90.2 nM; on VIM-1 (setting [4]) it was 158 nM; at NDM-1, 5.14 nM.

For `NS(=O)(=O)c1cccc(-c2ccc(CN3CCOCC3)cc2)c1-c1nnn[nH]1` [Example 341, 4′-(morpholin-4-ylmethyl)-2-(1H-tetrazol-5-yl)biphenyl-3-sulfonamide], the “Klebsiella pneumoniae MITC95” value in experiment [1] was greater than 200 µM. For the same compound, in experiment [2], the “Serratia marcescens MITC95” value was 1.172 µM. In addition, the “Escherichia coli MITC95” value in experiment [3] was determined as 0.7813 µM. Moreover, the IC50 on IMP-1 stood at 22.1 nM; at VIM-1 (setting [4]), 786 nM; at NDM-1, 2.94 nM.

In the case of `NS(=O)(=O)c1cccc(-c2ccc(CN3CNC(=O)C3)cc2)c1-c1nnn[nH]1` [Example 342, 4′-[(4-oxoimidazolidin-1-yl)methyl]-2-(1H-tetrazol-5-yl)biphenyl-3-sulfonamide], the “Klebsiella pneumoniae MITC95” value in experiment [1] was determined as 25 µM. In experiment [2], the “Serratia marcescens MITC95” value worked out at 0.7813 µM. For the same compound, in experiment [3], the “Escherichia coli MITC95” value was determined as 3.125 µM. Also, the results for the IC50 at IMP-1, at VIM-1 (setting [4]) and on NDM-1 were 46 nM, 80.4 nM and 4.64 nM, respectively.

Take `NS(=O)(=O)c1cccc(-c2ccc(CN3CCC(C(=O)O)C3)cc2)c1-c1nnn[nH]1` (stereo not drawn) [Example 343, 1-{[3′-sulfamoyl-2′-(1H-tetrazol-5-yl)biphenyl-4-yl]methyl}pyrrolidine-3-carboxylic acid]: in experiment [1], the “Klebsiella pneumoniae MITC95” value was determined as 100 µM. Moreover, the “Serratia marcescens MITC95” value in experiment [2] amounted to 9.375 µM. Also, the “Escherichia coli MITC95” value in experiment [3] stood at 1.563 µM. Further, the IC50 at IMP-1 was determined as 373 nM; at VIM-1 (setting [4]), 1180 nM; at NDM-1, 24.7 nM.

`CC(CC(=O)O)NCc1ccc(-c2cccc(S(N)(=O)=O)c2-c2nnn[nH]2)cc1` (stereo not drawn) [Example 344, 3-({[3′-sulfamoyl-2′-(1H-tetrazol-5-yl)biphenyl-4-yl]methyl}amino)butanoic acid]: the “Klebsiella pneumoniae MITC95” value in experiment [1] worked out at 100 µM. The “Serratia marcescens MITC95” value in experiment [2] is 4.688 µM. For the same compound, the “Escherichia coli MITC95” value in experiment [3] was 2.344 µM. The IC50 was found to be 242 nM at IMP-1, 585 nM on VIM-1 (setting [4]) and 32.8 nM on NDM-1.

Take `CC1(C)CCN(Cc2ccc(-c3cccc(S(N)(=O)=O)c3-c3nnn[nH]3)cc2)C1` [Example 346, 4′-[(3,3-dimethylpyrrolidin-1-yl)methyl]-2-(1H-tetrazol-5-yl)biphenyl-3-sulfonamide]: in experiment [1], the “Klebsiella pneumoniae MITC95” value was found to be 150 µM. Besides, the “Serratia marcescens MITC95” value in experiment [2] was found to be 2.344 µM. Also, the “Escherichia coli MITC95” value in experiment [3] is 1.563 µM. Besides, the 50% inhibitory concentration (IC50) on IMP-1 is 232 nM; at VIM-1 (setting [4]), 408 nM; at NDM-1, 11.7 nM.

Consider `CN(C)[C@@H]1CCN(Cc2ccc(-c3cccc(S(N)(=O)=O)c3-c3nnn[nH]3)cc2)C1` [Example 347, 4′-{[(3R)-3-(dimethylamino)pyrrolidin-1-yl]methyl}-2-(1H-tetrazol-5-yl)biphenyl-3-sulfonamide], for which the “Klebsiella pneumoniae MITC95” value in experiment [1] was determined as 200 µM. Moreover, the “Serratia marcescens MITC95” value in experiment [2] is 3.125 µM. Moreover, the “Escherichia coli MITC95” value in experiment [3] is 2.344 µM. In addition, the half-inhibitory concentration (IC50) turned out to be 185 nM at IMP-1, 844 nM at VIM-1 (setting [4]) and 12.2 nM at NDM-1.

As for `CN(C)CCCNCc1ccc(-c2cccc(S(N)(=O)=O)c2-c2nnn[nH]2)cc1` [Example 348, 4′-({[3-(dimethylamino)propyl]amino}methyl)-2-(1H-tetrazol-5-yl)biphenyl-3-sulfonamide], in experiment [1], the “Klebsiella pneumoniae MITC95” value is 75 µM. Also, the “Serratia marcescens MITC95” value in experiment [2] came to 9.375 µM. Moreover, the “Escherichia coli MITC95” value in experiment [3] was 1.172 µM. Moreover, the IC50 at IMP-1 came out at 1330 nM; at VIM-1 (setting [4]) it was 851 nM; on NDM-1, 25.4 nM.
